molecular target: T1, human recombinant CBL-b (human Biotin CBL-b recombinant protein a.a. 39-426) (Homo sapiens, UniProt Q13191); test: Biochemical assay for CBL-b inhibition (ligand displacement TR-FRET); assay type: binding; settings: 50 nM CBL-b, 0.3 μM Bodipy FL-Probe, read-out: IC50 (CBL-b inhibition, group)
T1 construct: human Biotin CBL-b recombinant protein a.a; 39-426; Biotin (biotinylated); made in house
Experimental: The inhibitory activity of the test compounds was assessed by Ligand displacement TR-FRET assay. The human recombinant CBL-b (human Biotin CBL-b recombinant protein a.a. 39-426; synthesised in-house) was diluted in enzyme assay buffer (20 mM HEPES, 150 mM NaCl, 0.01% Triton X, 0.01% BSA, 0.5 mM TCEP) in a 10 μl volume and plated in 384-well plates (Cat #781075, Greiner) to a final concentration of 50 nM. The enzyme/compound mixture was incubated at RT for 60 min. The Bodipy FL-Probe described in WO 2020/210508 (synthesized in-house) diluted in enzyme assay buffer was added to the plate and incubated for 60 min RT, the final probe concentration was 0.3 μM. After 60 min incubation, 10 μl of detection mix (Terbium Streptavidin, (Cat #PV3576, Invitrogen) diluted in 1× Lance buffer) was added and incubated for 60 min at room temperature. Time-resolved fluorescence (excitation, 320 nm; emission donor, 615 nm; emission acceptor, 665 nm) was monitored by using 2030 multilabel reader Victor5 (PerkinElmer). The IC50 (concentration for half maximal inhibition) and % maximum inhibition of the compounds were estimated by fitting the dose response data to a sigmoidal curve fitting equation using Graph pad Prism software V. 8.

T1 sequence (Q13191 39-426): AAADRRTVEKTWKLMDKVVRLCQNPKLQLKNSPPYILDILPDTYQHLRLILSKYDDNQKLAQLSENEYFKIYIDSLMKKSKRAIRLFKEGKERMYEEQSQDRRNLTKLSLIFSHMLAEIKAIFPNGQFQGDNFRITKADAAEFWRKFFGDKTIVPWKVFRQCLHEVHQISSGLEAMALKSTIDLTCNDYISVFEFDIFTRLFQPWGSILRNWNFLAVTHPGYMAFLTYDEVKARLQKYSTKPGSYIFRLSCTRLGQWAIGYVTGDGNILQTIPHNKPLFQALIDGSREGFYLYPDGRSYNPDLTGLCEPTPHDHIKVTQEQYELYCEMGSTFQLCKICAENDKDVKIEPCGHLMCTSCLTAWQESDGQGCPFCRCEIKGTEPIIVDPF

IC50	Structure (SMILES)
300 to 5000 nM	CC1CCC(C)N(Cc2cc(N3Cc4ccc(C5(Cc6nncn6C)COC5)cc4C3=O)nc(C(F)(F)F)c2)C1 (single isomer, unassigned) [Compound 139]
300 to 5000 nM	CC1CCC(C)N(Cc2cc(N3Cc4ccc(C5(Cc6nncn6C)COC5)cc4C3=O)nc(C(F)(F)F)c2)C1 (single isomer, unassigned) [Compound 140]
< 80 nM	CC1CCC(C)N(Cc2cc(N3Cc4ccc(C5(Cc6nncn6C)COC5)cc4C3=O)nc(C(F)(F)F)c2)C1 (single isomer, unassigned) [Compound 141]
300 to 5000 nM	CC1CCC(C)N(Cc2cc(N3Cc4ccc(C5(Cc6nncn6C)COC5)cc4C3=O)nc(C(F)(F)F)c2)C1 (single isomer, unassigned) [Compound 142]
80 to 300 nM	C[C@H]1CCCN(Cc2cc(Cl)nc(N3Cc4ccc([C@@H](Cc5nncn5C)C(F)(F)F)cc4C3=O)c2)C1 (single isomer, unassigned) [Compound 180]
< 80 nM	Cn1cnnc1CC1(c2ccc3c(c2)C(=O)N(c2cc(CNC4CCCC4O)cc(Cl)n2)C3)COC1 (single isomer, unassigned) [Compound 209, 2-(6-Chloro-4-(((2-hydroxycyclopentyl)amino)methyl)pyridin-2-yl)-6-(3-((4-methyl-4H-1,2,4-triazol-3-yl)methyl)oxetan-3-yl)isoindolin-1-one]
80 to 300 nM	C[C@@H](NCc1cscn1)c1cc(Cl)nc(N2Cc3ccc(C4(Cc5nncn5C)COC4)cc3C2=O)c1 (single isomer, unassigned) [Compound 217]
80 to 300 nM	C[C@@H](NC[C@H]1CCCO1)c1cc(Cl)nc(N2Cc3ccc(C4(Cc5nncn5C)COC4)cc3C2=O)c1 (single isomer, unassigned) [Compound 220]
300 to 5000 nM	C[C@@H](NCc1ccccn1)c1cc(Cl)nc(N2Cc3ccc(C4(Cc5nncn5C)COC4)cc3C2=O)c1 (single isomer, unassigned) [Compound 241]
80 to 300 nM	C[C@H](NCc1ccccn1)c1cc(Cl)nc(N2Cc3ccc(C4(Cc5nncn5C)COC4)cc3C2=O)c1 (single isomer, unassigned) [Compound 242]
80 to 300 nM	Cn1cnnc1C[C@]1(c2ccc3c(c2)C(=O)N(c2cc(CNCC4CCC4)cc(Cl)n2)C3)C[C@@H](C#N)C1 (single isomer, unassigned) [Compound 245]
300 to 5000 nM	C[C@H]1CCCN(Cc2cc(N3CCCC3)cc(N3Cc4ccc(C5(Cc6nncn6C)COC5)cc4C3=O)c2)C1 [Compound 21, (S)-6-(3-((4-Methyl-4H-1,2,4-triazol-3-yl)methyl)oxetan-3-yl)-2-(3-((3-methyl-piperidin-1-yl)methyl)-5-(pyrrolidin-1-yl)phenyl)isoindolin-1-one]
300 to 5000 nM	Cc1cc(CNCC(F)(F)F)cc(N2Cc3ccc(C4(Cc5nncn5C)COC4)cc3C2=O)c1 [Compound 22, 6-(3-((4-Methyl-4H-1,2,4-triazol-3-yl)methyl)oxetan-3-yl)-2-(3-methyl-5-(((2,2,2-trifluoroethyl)amino)methyl)phenyl)isoindolin-1-one]
300 to 5000 nM	Cn1cnnc1CC1(c2ccc3c(c2)C(=O)N(c2cc(CN4CCC5(CCCO5)CC4)cc(C(F)(F)F)n2)C3)COC1 [Compound 32, 2-(4-((1-Oxa-8-azaspiro[4.5]decan-8-yl)methyl)-6-(trifluoromethyl)pyridin-2-yl)-6-(3-((4-methyl-4H-1,2,4-triazol-3-yl)methyl)oxetan-3-yl)isoindolin-1-one]
300 to 5000 nM	Cn1cnnc1CC1(c2ccc3c(c2)C(=O)N(c2cc(C(=O)N4CC[C@H](O)C4)cc(C(F)(F)F)n2)C3)COC1 [Compound 36, (S)-2-(4-(3-Hydroxypyrrolidine-1-carbonyl)-6-(trifluoromethyl)pyridin-2-yl)-6-(3-((4-methyl-4H-1,2,4-triazol-3-yl)methyl)oxetan-3-yl)isoindolin-1-one]

Source: patent US20260226073A1 (AURIGENE ONCOLOGY LIMITED, priority 2023, published 2026)
